The values below come from patent EP0287830A1, “Alkanoic acid alkyl esters, method for their production and the application of aqueous emulsions of these esters in vaccines” (priority 1987, dated 1988).

Data set [1] can be described thus: Immunostimulatory and adjuvant effect in mouse test model. The format is in vivo, Mäuse. To be noted: as component of an oil-in-water emulsion, Mäusetestmodell.
A short description of data set [2]: Tolerability of emulsions in guinea pig test model. The format is in vivo, Meerschweinchen. To be noted: Meerschweinchentestmodell.

Turning to Hexansäurehexylester [Verbindung 2], the “immunstimulatorische und adjuvante Wirkung” value in data set [1] is “immunstimulatorische und adjuvante Wirkung”. The “Verträglichkeit der Emulsionen” value in data set [2] is given as “sehr gut verträglich”.
